Laboratory results published in PubChem BioAssay (NCI).
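Assay format: 96-well plates, 48-hour exposure. TGI marks complete inhibition of growth.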

Legend:
Experiment in all cases: NCI anticancer screen, dose series, 48 h
786-0 renal = system: 786-0 renal
A498 renal = system: A498 renal
A549 NSCLC = system: A549 NSCLC
ACHN renal = system: ACHN renal
BT-549 breast = system: BT-549 breast
CAKI-1 renal = system: CAKI-1 renal
CCRF-CEM leukemia = system: CCRF-CEM leukemia
COLO 205 colon = system: COLO 205 colon
DU-145 prostate = system: DU-145 prostate
EKVX NSCLC = system: EKVX NSCLC
HCC-2998 colon = system: HCC-2998 colon
HCT-116 colon = system: HCT-116 colon
HCT-15 colon = system: HCT-15 colon
HL-60(TB) leukemia = system: HL-60(TB) leukemia
HOP-62 NSCLC = system: HOP-62 NSCLC
HOP-92 NSCLC = system: HOP-92 NSCLC
HS 578T breast = system: HS 578T breast
HT29 colon = system: HT29 colon
IGROV1 ovarian = system: IGROV1 ovarian
K-562 leukemia = system: K-562 leukemia
KM12 colon = system: KM12 colon
LOX IMVI melanoma = system: LOX IMVI melanoma
MALME-3M melanoma = system: MALME-3M melanoma
MCF7 breast = system: MCF7 breast
MDA-MB-231 breast = system: MDA-MB-231 breast
MDA-MB-435 = system: MDA-MB-435
MDA-N = system: MDA-N
MOLT-4 leukemia = system: MOLT-4 leukemia
NCI-H226 lung = system: NCI-H226 lung
NCI-H23 lung = system: NCI-H23 lung
NCI-H460 lung = system: NCI-H460 lung
NCI-H522 lung = system: NCI-H522 lung
NCI/ADR-RES ovarian = system: NCI/ADR-RES ovarian
OVCAR-3 ovarian = system: OVCAR-3 ovarian
OVCAR-4 ovarian = system: OVCAR-4 ovarian
OVCAR-5 ovarian = system: OVCAR-5 ovarian
OVCAR-8 ovarian = system: OVCAR-8 ovarian
PC-3 prostate = system: PC-3 prostate
RPMI-8226 leukemia = system: RPMI-8226 leukemia
RXF 393 renal = system: RXF 393 renal
SF-268 CNS = system: SF-268 CNS
SF-295 CNS = system: SF-295 CNS
SF-539 CNS = system: SF-539 CNS
SK-MEL-2 melanoma = system: SK-MEL-2 melanoma
SK-MEL-28 melanoma = system: SK-MEL-28 melanoma
SK-MEL-5 melanoma = system: SK-MEL-5 melanoma
SK-OV-3 ovarian = system: SK-OV-3 ovarian
SN12C renal = system: SN12C renal
SNB-19 CNS = system: SNB-19 CNS
SNB-75 CNS = system: SNB-75 CNS
SR leukemia = system: SR leukemia
SW-620 colon = system: SW-620 colon
T-47D breast = system: T-47D breast
TK-10 renal = system: TK-10 renal
U251 CNS = system: U251 CNS
UACC-257 melanoma = system: UACC-257 melanoma
UACC-62 melanoma = system: UACC-62 melanoma
UO-31 renal = system: UO-31 renal
M14 melanoma = system: M14 melanoma

## CCCCCCc1cc2cc(C(=O)Nc3nc(C45CC6CC(CC(C6)C4)C5)cs3)c(=O)oc2cc1O
786-0 renal
  TGI: 25.6 µM
A498 renal
  TGI: 31.3 µM
A549 NSCLC
  TGI: 54.4 µM
ACHN renal
  TGI: 20.8 µM
BT-549 breast
  TGI: 61 µM
CAKI-1 renal
  TGI: 30.1 µM
CCRF-CEM leukemia
  TGI: 50.5 µM
COLO 205 colon
  TGI: 32.6 µM
DU-145 prostate
  TGI: > 100 µM
EKVX NSCLC
  TGI: 51.4 µM
HCC-2998 colon
  TGI: 32.8 µM
HCT-116 colon
  TGI: 13.2 µM
HCT-15 colon
  TGI: 39.2 µM
HL-60(TB) leukemia
  TGI: 19.8 µM
HOP-62 NSCLC
  TGI: 37.6 µM
HOP-92 NSCLC
  TGI: 24.4 µM
HS 578T breast
  TGI: 46.9 µM
HT29 colon
  TGI: > 100 µM
IGROV1 ovarian
  TGI: 46.9 µM
K-562 leukemia
  TGI: 11 µM
KM12 colon
  TGI: 32.6 µM
LOX IMVI melanoma
  TGI: 30.9 µM
MALME-3M melanoma
  TGI: 51.1 µM
MCF7 breast
  TGI: > 100 µM
MDA-MB-231 breast
  TGI: 22.3 µM
MDA-MB-435
  TGI: 31.4 µM
MDA-N
  TGI: 40.2 µM
MOLT-4 leukemia
  TGI: 49.5 µM
NCI-H226 lung
  TGI: 44.8 µM
NCI-H23 lung
  TGI: 33.2 µM
NCI-H460 lung
  TGI: 50.3 µM
NCI-H522 lung
  TGI: 8.33 µM
NCI/ADR-RES ovarian
  TGI: 80.5 µM
OVCAR-3 ovarian
  TGI: 39.4 µM
OVCAR-4 ovarian
  TGI: 42.1 µM
OVCAR-5 ovarian
  TGI: 71.3 µM
OVCAR-8 ovarian
  TGI: 43.1 µM
PC-3 prostate
  TGI: 34.3 µM
RPMI-8226 leukemia
  TGI: 39 µM
RXF 393 renal
  TGI: 30.6 µM
SF-268 CNS
  TGI: 63 µM
SF-295 CNS
  TGI: 23.6 µM
SF-539 CNS
  TGI: 38.6 µM
SK-MEL-2 melanoma
  TGI: 31.4 µM
SK-MEL-28 melanoma
  TGI: > 100 µM
SK-MEL-5 melanoma
  TGI: 24.7 µM
SK-OV-3 ovarian
  TGI: 49 µM
SN12C renal
  TGI: 28.7 µM
SNB-19 CNS
  TGI: 60.1 µM
SNB-75 CNS
  TGI: 32.4 µM
SR leukemia
  TGI: 26.4 µM
SW-620 colon
  TGI: > 100 µM
T-47D breast
  TGI: 38.1 µM
TK-10 renal
  TGI: 34.2 µM
U251 CNS
  TGI: 28.6 µM
UACC-257 melanoma
  TGI: 68 µM
UACC-62 melanoma
  TGI: 25.4 µM
UO-31 renal
  TGI: 67.6 µM

## Cc1ccc2[nH]c3c(c2c1)C1CCC(C(C)(C)C)CC1C1C(=O)N(c2ccc(Oc4ccccc4)cc2)C(=O)C31 (stereo unspecified)
786-0 renal
  TGI: 28.3 µM
A498 renal
  TGI: 31.5 µM
A549 NSCLC
  TGI: > 100 µM
ACHN renal
  TGI: > 100 µM
BT-549 breast
  TGI: 64.1 µM
CAKI-1 renal
  TGI: 45.4 µM
CCRF-CEM leukemia
  TGI: 8.26 µM
COLO 205 colon
  TGI: > 100 µM
DU-145 prostate
  TGI: > 100 µM
EKVX NSCLC
  TGI: > 100 µM
HCC-2998 colon
  TGI: > 100 µM
HCT-116 colon
  TGI: > 100 µM
HCT-15 colon
  TGI: > 100 µM
HL-60(TB) leukemia
  TGI: 8.09 µM
HOP-62 NSCLC
  TGI: > 100 µM
HOP-92 NSCLC
  TGI: 45.7 µM
HS 578T breast
  TGI: 8.28 µM
HT29 colon
  TGI: > 100 µM
IGROV1 ovarian
  TGI: > 100 µM
K-562 leukemia
  TGI: 31.3 µM
KM12 colon
  TGI: > 100 µM
LOX IMVI melanoma
  TGI: > 100 µM
M14 melanoma
  TGI: > 100 µM
MALME-3M melanoma
  TGI: 41.9 µM
MCF7 breast
  TGI: > 100 µM
MDA-MB-231 breast
  TGI: > 100 µM
MDA-MB-435
  TGI: > 100 µM
MDA-N
  TGI: > 100 µM
MOLT-4 leukemia
  TGI: 7.92 µM
NCI-H226 lung
  TGI: > 86.9 µM
NCI-H23 lung
  TGI: 58.9 µM
NCI-H460 lung
  TGI: > 100 µM
NCI-H522 lung
  TGI: 45 µM
NCI/ADR-RES ovarian
  TGI: > 100 µM
OVCAR-3 ovarian
  TGI: 35.4 µM
OVCAR-4 ovarian
  TGI: 42.6 µM
OVCAR-5 ovarian
  TGI: > 81 µM
OVCAR-8 ovarian
  TGI: 38.6 µM
PC-3 prostate
  TGI: > 100 µM
RPMI-8226 leukemia
  TGI: 40.5 µM
RXF 393 renal
  TGI: 29.1 µM
SF-268 CNS
  TGI: 41.6 µM
SF-295 CNS
  TGI: > 100 µM
SK-MEL-2 melanoma
  TGI: > 100 µM
SK-MEL-28 melanoma
  TGI: > 100 µM
SK-MEL-5 melanoma
  TGI: > 100 µM
SK-OV-3 ovarian
  TGI: 94.7 µM
SN12C renal
  TGI: 37 µM
SNB-19 CNS
  TGI: > 71.9 µM
SNB-75 CNS
  TGI: 9.08 µM
SR leukemia
  TGI: 3.07 µM
SW-620 colon
  TGI: > 100 µM
T-47D breast
  TGI: > 68.2 µM
TK-10 renal
  TGI: 84.4 µM
U251 CNS
  TGI: 21.6 µM
UACC-257 melanoma
  TGI: > 100 µM
UACC-62 melanoma
  TGI: > 100 µM
UO-31 renal
  TGI: > 100 µM
